Results published in US11572564B2, “Microorganisms for producing 1,4-butanediol and methods related thereto” (priority 2011, dated 2023).

What was measured:
[1] = 20° C. and 1 atm; cited from earlier work
[2] = test system: E. coli; assay: E. coli CO tolerance experiment (anaerobic growth with saturating CO); assay type: cell-based; conditions: levels achievable at normal atmospheric pressure
Experimental: To test whether or not E. coli can grow anaerobically in the presence of saturating amounts of CO, cultures were set up in 120 ml serum bottles with 50 ml of Terrific Broth medium (plus reducing solution, NiCl2, Fe(II)NH4SO4, cyanocobalamin, IPTG, and chloramphenicol) as described above for anaerobic microbiology in small volumes. One half of these bottles were equilibrated with nitrogen gas for 30 min. and one half was equilibrated with CO gas for 30 min. An empty vector (pZA33) was used as a control, and cultures containing the pZA33 empty vector as well as both ACS90 and ACS91 were tested with both N2 and CO. All were inoculated and grown for 36 hrs with shaking (250 rpm) at 37° C. […] The bulk of the observed growth occurred overnight with a long lag.

What does the source list for `[C-]#[O+]` [CO]?
maximum water solubility [1]: 970 µM; sensitivity of laboratory strains of E. coli to CO [2]: insensitive
